Laboratory results from US20200199647A1, “ASSAY FOR SCREENING MODULATORS OF HOLOPHOSPHATASE ACTIVITY” (UNITED KINGDOM RESEARCH AND INNOVATION, priority 2017, published 2020).

How the values were obtained:
R15A-PP1c = biological target: T1, R15A-PP1c (Homo sapiens, UniProt O75807); assay: In vitro dephosphorylation of P-eIF2α by recombinant R15A-PP1c holophosphatase (10 nM PP1c); format: biochemical; conditions: PP1c 10 nM, 1 μM P-eIF2α, compounds 100 μM, 30° C., 16 h
T1 construct: PPP1R15A amino acids 325-636 (R15A); His6 (C); made in house; host or cells: E. coli BL21 pLysS (R15A, eIF2α); E. coli BL21/pGro7 (PP1c)
T1 sequence (O75807 325-636, stated change not applied): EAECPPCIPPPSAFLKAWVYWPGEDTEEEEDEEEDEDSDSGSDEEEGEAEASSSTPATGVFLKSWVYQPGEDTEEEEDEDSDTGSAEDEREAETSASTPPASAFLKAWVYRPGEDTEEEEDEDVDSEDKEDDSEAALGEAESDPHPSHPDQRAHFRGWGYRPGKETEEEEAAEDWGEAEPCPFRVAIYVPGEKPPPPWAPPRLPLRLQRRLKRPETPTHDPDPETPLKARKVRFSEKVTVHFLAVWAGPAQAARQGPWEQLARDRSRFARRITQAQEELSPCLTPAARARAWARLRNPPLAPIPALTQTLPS
T1 sequence (P62136 7-330 partner): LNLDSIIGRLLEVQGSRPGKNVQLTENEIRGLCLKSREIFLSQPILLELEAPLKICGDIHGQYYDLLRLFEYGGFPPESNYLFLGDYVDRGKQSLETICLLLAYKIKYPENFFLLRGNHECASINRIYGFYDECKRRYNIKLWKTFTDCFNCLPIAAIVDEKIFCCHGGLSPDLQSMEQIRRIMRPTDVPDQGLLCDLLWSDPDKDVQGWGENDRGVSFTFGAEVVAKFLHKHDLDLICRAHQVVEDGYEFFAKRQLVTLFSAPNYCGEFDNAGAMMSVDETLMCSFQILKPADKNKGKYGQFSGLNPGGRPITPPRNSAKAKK
Experimental: (§1) PP1c was diluted to the appropriate concentration (as indicated in the figure legends) in dephosphorylation buffer immediately prior to use. Dephosphorylation reactions were carried out by pre-incubating diluted PP1c in the presence or absence of regulatory subunits (either […]), and/or compounds (all at 100 μM, except for Salubrinal which was used at 30 μM), for 15′ at RT. All compounds were diluted in DMSO, and DMSO vehicle was used in all control experiments.
The reaction was initiated by the addition of 1 μM P-eIF2α or ^33P Phosphorylase a substrates and then incubated at 30° C. for 16 h with shaking at 350 rpm. Reactions were stopped by addition of 4× Laemmli sample buffer. eIF2α samples were analyzed by immunoblotting or Phos-tag gels. […] Samples in FIG. 8 and FIG. 16 were run on a 15% SuperSep Phos-tag acrylamide gel (Alpha Laboratories) and visualized by staining with InstantBlue Protein Stain.

R15B-PP1c = biological target: T2, R15B-PP1c (Homo sapiens, UniProt Q5SWA1); assay: In vitro dephosphorylation of P-eIF2α by recombinant R15B-PP1c holophosphatase (10 nM PP1c); format: biochemical; conditions: PP1c 10 nM, 1 μM P-eIF2α, compounds 100 μM, 30° C., 16 h
T2 construct: PPP1R15B amino acids 340-698 (R15B); His6 (C); made in house; host or cells: E. coli BL21 pLysS (R15B, eIF2α); E. coli BL21/pGro7 (PP1c)
T2 sequence (P62136 7-330 partner limits assumed, one chain of several): as the sequence (P62136 7-330 partner) above
Experimental: as §1
The reaction was initiated by the addition of 1 μM P-eIF2α or ^33P Phosphorylase a substrates and then incubated at 30° C. for 16 h with shaking at 350 rpm. Reactions were stopped by addition of 4× Laemmli sample buffer. eIF2α samples were analyzed by immunoblotting or Phos-tag gels. P-eIF2α dephosphorylation was analysed by immunoblotting using anti-Phospho-eIF2α (SerS1) (#9721) (Cell Signaling) and anti-eIF2α (ab26197) (AbCam) antibodies. Samples in FIG. 8 and FIG. 16 were run on a 15% SuperSep Phos-tag acrylamide gel (Alpha Laboratories) and visualized by staining with InstantBlue Protein Stain.

R15A^N/R15B^C = biological target: T3, R15A^N/R15B^C (Homo sapiens, UniProt O75807+Q5SWA1); assay: Dephosphorylation of P-eIF2α by chimeric holophosphatase PP1c-R15A^N/R15B^C; format: biochemical; conditions: PP1c 10 nM, compounds 100 μM, 30° C., 16 h
T3 construct: PPP1R15A amino acids 325-636 (R15A), 325-512 (R15A^N), and 513-636 (R15A^C); PPP1R15B amino acids 340-698 (R15B), 340-635 (R15B^N), and 636-698 (R15B^C); R15B^C (PPP1R15B amino acids 636-698); His6 (C); made in house; host or cells: E. coli BL21 pLysS (chimera, eIF2α); E. coli BL21/pGro7 (PP1c)
T3 sequence (O75807+Q5SWA1 fused, stated change not applied): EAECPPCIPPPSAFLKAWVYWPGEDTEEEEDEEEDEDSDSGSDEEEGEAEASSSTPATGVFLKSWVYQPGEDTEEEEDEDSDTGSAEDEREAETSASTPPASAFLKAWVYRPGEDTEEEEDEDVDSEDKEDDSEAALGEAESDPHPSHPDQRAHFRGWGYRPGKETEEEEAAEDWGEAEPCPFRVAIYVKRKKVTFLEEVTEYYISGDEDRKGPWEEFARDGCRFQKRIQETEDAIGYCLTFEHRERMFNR
T3 sequence (P62136 7-330 partner): as the sequence (P62136 7-330 partner) above
Description: The cDNA encoding human PPP1R15A, PPP1R15B and PPP1R3A regulatory subunits were cloned into a pMAL-c5×-His vector, encoding for an amino-terminal MBP-tag and a carboxy-terminal His6-tag. […] R15A^N/R15B^C Chimeras were obtained by swapping the amino-terminal regions (R15^N) of R15A and R15B proteins described above, whilst maintaining the same carboxy-terminal regions (R15^C), to produce R15B^N/R15A^C and […] chimeras respectively, using In-Fusion cloning (Takara). All regulatory subunits were expressed in BL21 pLysS cells in Luria broth (LB) at 30° C. overnight. […] R15 proteins were stored at −80° C. and used within one month.
as §1
The reaction was initiated by the addition of 1 μM P-eIF2α or ^33P Phosphorylase a substrates and then incubated at 30° C. for 16 h with shaking at 350 rpm. Reactions were stopped by addition of 4× Laemmli sample buffer. eIF2α samples were analyzed by immunoblotting or Phos-tag gels. […]

R15A = biological target: T4, R15A (Homo sapiens, UniProt O75807); assay: Limited trypsin proteolysis of R15A (conformational change); conditions: 22° C.
T4 construct: PPP1R15A amino acids 325-636 (R15A); His6 (C); made in house; host or cells: E. coli BL21 pLysS
T4 sequence (O75807 325-636, stated change not applied): as the sequence (O75807 325-636, stated change not applied) above
Experimental: (§2) Reactions were allowed to proceed at 22° C. with shaking at 350 rpm. At time points 30 min, 1 h, 2 h or 3 h, 30 μl of sample was removed from the mix and digestion was stopped by addition of 10 μl of 16% SDS Laemmli sample buffer. Samples were run on 4-12% NuPAGE Bis-Tris gels (Life Technologies). Proteins were visualised by staining with InstantBlue Coomassie Protein Stain (Expedeon) protein stain.
(§3) Purified R15A and R15B were diluted to 3 μM in PBS, and incubated for 15′ at RT with 100 μM Raphin1, or DMSO vehicle. Reactions were initiated by addition of 5 nM of trypsin from bovine pancreas (Sigma), made up in PBS, and allowed to proceed for 5′ at 22° C., with shaking at 350 rpm. Digestion was stopped by addition of 4× Laemmli sample buffer and samples were run on 4-12% NuPAGE Bis-Tris gels (Life Technologies). Proteins were visualised by staining with InstantBlue Protein Stain.

R15B = biological target: T5, R15B (Homo sapiens, UniProt Q5SWA1); assay: Limited trypsin proteolysis of R15B (conformational change); conditions: 22° C.
T5 construct: PPP1R15B amino acids 340-698 (R15B); His6 (C); made in house; host or cells: E. coli BL21 pLysS
T5 sequence (Q5SWA1 340-698): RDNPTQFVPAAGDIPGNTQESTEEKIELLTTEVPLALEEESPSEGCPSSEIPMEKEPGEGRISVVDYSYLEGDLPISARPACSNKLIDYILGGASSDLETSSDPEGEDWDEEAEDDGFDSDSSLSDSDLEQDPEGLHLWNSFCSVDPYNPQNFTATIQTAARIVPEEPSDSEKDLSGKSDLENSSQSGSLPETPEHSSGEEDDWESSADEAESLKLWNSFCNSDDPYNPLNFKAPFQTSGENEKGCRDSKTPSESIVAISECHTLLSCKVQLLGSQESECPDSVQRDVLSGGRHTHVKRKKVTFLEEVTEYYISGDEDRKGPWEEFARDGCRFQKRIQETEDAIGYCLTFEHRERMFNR
Experimental: as §2, §3

| SMILES | inhibition of R15A-PP1c eIF2α holophosphatase (R15A-PP1c) | inhibition of R15B-PP1c eIF2α holophosphatase (R15B-PP1c) | inhibition of R15A^N/R15B^C chimeric holophosphatase (R15A^N/R15B^C) | trypsin sensitivity of R15A (R15A; 100 μM Raphin1, 3 μM R15A, 5 nM trypsin, 5 min) | trypsin sensitivity of R15B (R15B; 100 μM Raphin1, 3 μM R15B, 5 nM trypsin, 5 min) | sensitivity of R15A to trypsin proteolysis (R15A; 100 μM compound, 0.5 μM R15A, 2.5 nM trypsin, 30 min to 3 h) | sensitivity of R15B to trypsin proteolysis (R15B; 100 μM compound, 0.5 μM R15B, 2.5 nM trypsin, 30 min to 3 h) |
| --- | --- | --- | --- | --- | --- | --- | --- |
| NC(N)=N/N=C/c1cccc(Cl)c1Cl [Raphin1] | not R15A-PP1c | selectively inhibited R15B-PP1c | not R15A^N/R15B^C | had no effect on the trypsin sensitivity of R15A | protected R15B | – | – |
| N=C(N)N/N=C/c1c(Cl)cccc1Cl [Guanabenz] | selectively inhibited R15A-PP1c | not R15B-PP1c | inhibited | – | – | decreased the sensitivity of R15A to trypsin proteolysis | No such protective effects |
